Source: publication PMC3684613 (PLoS ONE, 2013)
Like-named read-outs stand apart in the source and are kept apart here.

Experiments:
[1] = tested on: P. falciparum 3D7; set-up: method as in ChEMBL-NTD; conditions: ref ChEMBL-NTD, cited from earlier work
[2] = tested on: P. falciparum 3D7; experiment: DAPI stain fluorescent high content imaging assay, P. falciparum 3D7 (confirmatory screen, Avery); conditions: for EC50: 3D7, read-out: EC50_nM; for inhibition of growth at 5 µM: 3D7, read-out: percent_inh @ 5 uM
[3] = values follow the order of the source (GNF; GSK; StJude)
[4] = original screening data, source (GSK, GNF, StJude), several values separated by ';' in order of sources

| EC50 ([2]; Plasmodium falciparum) [nM] | SMILES | inhibition of growth at 5 µM ([2]; Plasmodium falciparum) [%] | other results |
| --- | --- | --- | --- |
| 1300 | COc1cccc(-c2nn(C)c3sc(C(=O)NCCN4CCN(c5ccccc5F)CC4)cc23)c1 [MMV019064] | 91 | EC50 ([1]; source GSK): 955 nM |
| 684 | Cc1cc(Nc2ccc(OCc3ccccc3)cc2)nc2cc(O)ccc12 [MMV007181] | 96 | EC50 [1, 3]: 73.6 nM |
| 697 | CC(C)OCc1cc(CN2CCN(c3cccc(Cl)c3)CC2)c(O)c2ncccc12 [MMV000788] | 98 | EC50 ([1]; source StJude): 941 nM |
| 94.4 | Cc1ccc(-c2cc3c(nn2)-c2ccccc2C3=O)cc1 [MMV666021] | 99 | EC50 ([1]; source GNF): 2000 nM |
| 551 | CCCCCCc1cc2cc(-c3nc4ccccc4[nH]3)c(=Nc3ccccc3C)oc2cc1O [MMV666597] | 96 | EC50 [1, 3]: 2120 nM |
| 846 | O=c1cc(NC2CCN(CCCc3ccccc3)CC2)c2cc(Cl)ccc2o1 [MMV665786] | 97 | EC50 ([1]; source GNF (GNF-Pf ids)): 408 nM |
| 893 | N=c1n(CCN2CCCCC2)c2ccccc2n1CC(O)c1cccc(Br)c1 (stereo not shown) [MMV665902] | 98 | EC50 ([1]; source GSK): 1140 nM |
|  | CCN(CC)c1ccc(NC(=O)c2cccs2)cc1 [MMV009060] | 88 | EC50 ([1]; source GNF): 414 nM |
|  | COc1ccccc1N1CCN(C(CNS(=O)(=O)c2ccc(Cl)cc2)c2cccnc2)CC1 (stereo not shown) [MMV665914] | 93 | EC50 ([1]; source StJude): 15000 nM |
| 1150 | Cc1cc(N(C)C)nc(Nc2ccc(NC(=O)Nc3ccccc3)cc2)n1 [MMV020243] |  | EC50 [1, 3]: 134 nM |
| 584 | CCCCOC(=O)c1ccc(Nc2cc(C)nc3ccc(OC)cc23)cc1 [MMV665797] | 99 | EC50 ([1]; source GSK (TCMDC ids)): 640 nM |
|  | O=C(NC1CCCC1)c1ccc(N2CCC(NCc3cccc(C(F)(F)F)c3)CC2)cc1 [MMV666070] | 93 | EC50 ([1]; source GSK): 1330 nM |
| 170 | COc1ccc(-n2ccnc2SCC(=O)Nc2cc(C)ccc2C)c(OC)c1 [MMV019258] | 95 | EC50 ([1]; source GSK (TCMDC id)): 205 nM |
| 1330 | CCOc1cc2c(cc1OCC)C(c1cc(Cl)c(O)c(OCC)c1)NCC2 (stereo not shown) [MMV000481] | 96 | EC50 ([1]; source StJude (SJ ids)): 3010 nM |
| 58.1 | CCN(CC)CCNc1ccnc2cc(Cl)ccc12 [MMV006087] |  | EC50 ([1]; source GNF (GNF-Pf id)): 7.16 nM |
| 800 | Clc1cc(Br)ccc1-c1ccc(CNCC2CCNCC2)o1 [MMV019918] | 96 | EC50 [1, 4]: 1510 nM |
| 4000 | COc1cccc(Nc2nc(N)c3ccccc3n2)c1 [MMV019199] |  | EC50 [1, 3]: 934 nM; inhibition of growth at 2 µM ([2]; Plasmodium falciparum, 3D7, read-out: percent_inh @ 2 uM): 94% |
|  | O=C(Nc1ccc(Br)cc1)Nc1cccc(Cl)c1 [MMV001318] | 94 | EC50 [1, 4]: 15000 nM |
| 843 | CCCCNCC(O)(c1ccc(Cl)cc1)c1ccc(Cl)cc1 [MMV665929] | 97 | EC50 ([1]; source GNF): 720 nM |
|  | COc1ccc2nc(N)nc(C)c2c1 [MMV665897] | 63 | EC50 ([1]; source GSK (TCMDC ids)): 927 nM |
| 282 | Cc1ccc(N2C(=O)C3C(C2=O)C2(c4ccccc4)C(=O)C3(c3ccccc3)C(c3ccccc3)=C2c2ccccc2)cc1 (stereo not shown) [MMV666062] | 98 | EC50 ([1]; source GSK (TCMDC id)): 869 nM |
| 180 | COc1ccc(Br)cc1C1Nc2ccc3ccccc3c2C2=C1C(=O)CC(c1ccccc1)C2 (stereo not shown) [MMV020885] | 95 | EC50 ([1]; source GSK (TCMDC id)): 590 nM |
| 293 | OC(CNC1CCCCC1)Cn1c2ccccc2c2ccccc21 (stereo not shown) [MMV009063] | 93 | EC50 ([1]; source GNF (GNF-Pf id)): 483 nM; EC50 ([1]; source GSK (TCMDC id)): 991 nM |
| 934 | COc1ccc(C2NCCc3c2[nH]c2ccccc32)cc1CN1CCN(c2ccc(F)cc2)CC1 (stereo not shown) [MMV019690] | 97 | EC50 ([1]; source GSK (TCMDC ids)): 776 nM |
|  | CCCCOc1ccc(C(=O)Nc2cc(C)on2)cc1 [MMV007906] | 73 | EC50 [1, 4]: 3160 nM |
| 313 | FC(F)(F)c1cccc(Nc2nc3ccccc3nc2Nc2cccc(C(F)(F)F)c2)c1 [MMV665794] | 99 | EC50 ([1]; source GSK (TCMDC ids)): 137 nM |
| 370 | CCOc1cc2c(cc1OCC)C(c1cc(OC)c(O)cc1Cl)NCC2 (stereo not shown) [MMV008956] | 98 | EC50 ([1]; source GNF (GNF-Pf id)): 362 nM; EC50 ([1]; source GSK (TCMDC id)): 748 nM |
|  | CCN(CC)CCCNc1ccnc2cc3ccccc3cc12 [MMV665783] | 90 | EC50 ([1]; source GNF (GNF-Pf ids)): 33.8 nM |

| EC50 ([2]; Plasmodium falciparum) [nM] | SMILES | inhibition of growth at 5 µM ([2]; Plasmodium falciparum) [%] | other results |
| --- | --- | --- | --- |
| 1200 | CCOc1ccc(CN2CCN(CC(O)COc3ccc(OCC(O)CN4CCN(Cc5ccc(OCC)cc5)CC4)cc3)CC2)cc1 (stereo not shown) [MMV007092] | 97 | EC50 [1, 3]: 1370 nM |
| 1030 | CC(Oc1ccc(NC(=O)c2cccs2)cc1)C(=O)c1ccc(Cl)cc1 (stereo not shown) [MMV665886] | 87 | EC50 [1, 3]: 774 nM |
| 946 | CC(C)(C)c1ccc(C2CC3=Nc4ccccc4N(C(=O)c4ccccc4Cl)C(c4ccc(F)cc4)C3=C(O)C2)cc1 (stereo not shown) [MMV011436] | 96 | EC50 [1, 3]: 2630 nM |
| 345 | Fc1ccc2[nH]c3c(NCCCN4CCOCC4)ncnc3c2c1 [MMV019871] | 98 | EC50 ([1]; source GSK (TCMDC id)): 714 nM |
| 314 | CCOC(=O)c1cnc2c(C)cccc2c1Nc1ccc(C(C)=O)cc1 [MMV006250] | 94 | EC50 ([1]; source GNF (GNF-Pf ids)): 119 nM |
| 1430 | CCOc1cc(Br)c(C(C)NC(=O)c2cccc(OC)c2)cc1OCC (stereo not shown) [MMV665796] | 96 | EC50 ([1]; source GSK): 168 nM |
| 1000 | CC1CC2=C(CC1CNCCCN(C)C)C(C)(C)CCC2 (stereo not shown) [MMV665830] | 98 | EC50 [1, 3]: 250 nM |
| 142 | O=[N+]([O-])c1ccc(C=NNc2nc3ccccc3[nH]2)cc1 [MMV666607] | 99 | EC50 ([1]; source GNF (GNF-Pf id)): 818 nM; EC50 ([1]; source GSK (TCMDC id)): 283 nM |
| 205 | CCOC(=O)c1c(NC(=O)c2ccccc2)sc2c(O)c(CN(CC)CC)ccc12 [MMV665831] | 96 | EC50 ([1]; source GNF (GNF-Pf id)): 267 nM; EC50 ([1]; source GSK (TCMDC id)): 969 nM |
| 237 | CCCCCC(=O)N1c2ccccc2N=C2CC(c3ccc(OC)c(OC)c3)CC(O)=C2C1c1ccc(C(F)(F)F)cc1 (stereo not shown) [MMV085583] | 100 | EC50 ([1]; source GNF (GNF-Pf id)): 107 nM |
|  | CCc1ccc(CNCC(O)c2ccccc2)cc1 (stereo not shown) [MMV665812] | 97 | EC50 ([1]; source StJude): 2170 nM |
|  | CCN1CCN(c2c(C(=O)c3ccccc3)cnc3cc(OC)c(OC)cc23)CC1 [MMV008474] | 59 | EC50 ([1]; source GNF (GNF-Pf ids)): 3020 nM |
|  | CCOc1cccc(C(=O)Nc2ccc(-c3nc4ccccc4[nH]3)cc2)c1 [MMV019202] |  | EC50 [1, 4]: 1010 nM; % inh. At 2.5 uM ([2]; 2.5 uM (Comment column; solubility issue at 5 uM)): 97% |
| 142 | CN1CCN(c2ccc(Nc3c4ccccc4nc4ccccc34)cc2)CC1 [MMV006172] | 97 | EC50 ([1]; source GNF (GNF-Pf id)): 56.7 nM; EC50 ([1]; source GSK (TCMDC id)): 645 nM |
| 1260 | OC(Cn1nnc2ccccc21)Cn1c2ccc(Br)cc2c2cc(Br)ccc21 (stereo not shown) [MMV666025] | 98 | EC50 ([1]; source GNF (GNF-Pf ids)): 3370 nM |
|  | Cn1c(C(=O)c2cccc3ccccc23)nc2ccccc21 [MMV665824] | 89 | EC50 ([1]; source GNF): 6.92 nM |
| 259 | CCC(c1ccccc1)c1nn2c(-c3cccs3)nnc2s1 (stereo not shown) [MMV665876] | 99 | EC50 ([1]; source GSK (TCMDC id)): 167 nM |
| 555 | O=C(CCl)NCCOc1ccc(Cl)cc1Cl [MMV665927] | 94 | EC50 [1, 3]: 538 nM |
| 1310 | Cc1ccc2cc3c(N)c4c(C)ccc(C)c4nc3nc2c1 [MMV666079] | 98 | EC50 ([1]; source GNF (GNF-Pf ids)): 431 nM |
|  | CCCc1c(C)nc2ccccc2c1O [MMV666081] | 88 | EC50 ([1]; source GNF): 630 nM |
| 118 | CCOC(=O)c1ccc2nc(-c3ccccc3)cc(O)c2c1 [MMV006457] | 96 | EC50 ([1]; source GNF (GNF-Pf id)): 549 nM |
|  | CCCCCCC(O)(c1ccc(F)cc1)C(CN1CCOCC1)c1ccccc1 (stereo not shown) [MMV000621] | 93 | EC50 ([1]; source StJude (SJ ids)): 3180 nM |
| 854 | COc1cccc(Nc2nc(NCCO)c3ccccc3n2)c1 [MMV011944] |  | EC50 ([1]; source GNF): 115 nM; EC50 ([1]; source GSK): 151 nM |
| 676 | O=C(CCc1ccccc1)c1ccccc1OCC(O)CN1CCCCC1 (stereo not shown) [MMV009015] | 97 | EC50 ([1]; source GNF): 881 nM |
| 1190 | CCOC(=O)c1cnc2ccc(Cl)cc2c1NCCCN(C)C [MMV006882] | 98 | EC50 ([1]; source GNF (GNF-Pf ids)): 826 nM |
| 1130 | CC1CCN(Cc2c(O)ccc3cc(-c4nc5ccccc5s4)c(=O)oc23)CC1 [MMV009127] | 91 | EC50 ([1]; source GNF (GNF-Pf ids)): 12500 nM |
|  | Cc1ccc(NC(=O)Nc2cccc(Cl)c2)cc1F [MMV000911] | 52 | EC50 [1, 4]: 15000 nM |

| SMILES | EC50 ([2]; Plasmodium falciparum) [nM] | inhibition of growth at 5 µM ([2]; Plasmodium falciparum) [%] | other results |
| --- | --- | --- | --- |
| CCCCCCc1cc(O)c2c3c(c(=O)oc2c1)CCC(C)C3 (stereo not shown) [MMV665987] | 534 | 96 | EC50 ([1]; source GNF (GNF-Pf ids)): 364 nM |
| O=C(CCc1ccco1)NC1CCN(CC2(c3ccc(Cl)cc3)CCC2)CC1 [MMV666108] | 1140 | 96 | EC50 ([1]; source GSK): 1450 nM |
| Cc1ccc(N2C3c4ccccc4N(S(=O)(=O)c4ccc(C)cc4)C2c2ccccc2N3S(=O)(=O)c2ccc(C)cc2)cc1 [MMV007160] | 24.8 | 97 | EC50 ([1]; source GNF (GNF-Pf id)): 720 nM |
